For one data set, the target named is BTK(WT) (Homo sapiens, UniProt Q06187). Briefly: Screening for BTK inhibitory activity. The data set is classed as biochemical. As for the experimental part: 1.1 Screening for BTK Inhibitory Activity
350 ng/μL BTK stock solution was diluted with kinase buffer (50 mM HEPES, 10 mM MgCl2, 2 mM DTT, 1 mM EGTA, 0.01% Tween 20), and 6 μL of 1.67× working solution at 0.0334 ng/μL (final concentration: 0.02 ng/μL) was added to each well. Different compounds dissolved in DMSO were added to the wells using a nanoliter pipettor, resulting in the final concentration of 1000 nM to 0.244 nM (4-fold gradient for 7 concentrations in total), and blank control wells (without enzyme) and negative control wells (with enzyme, plus vehicle DMSO) were set, 2 replicate wells for each well. After enzyme was reacted with the compound or vehicle for 30 min, 5×ATP at 100 μM (final concentration: 20 μM) prepared with kinase buffer was mixed with 5×substrate at 0.5 μM (final concentration: 0.1 μM, ULight-poly GT) at a ratio of 1:1, and the mixture was added to each well at 4 μL/well. After being sealed with a film, the plate was incubated at room temperature for 2 h, then 5 μL of 4×EDTA at 40 mM (final concentration: 10 mM) was added to each well. After the plate was incubated for 5 min at room temperature, 5 μL of 4× detection reagent at 8 nM (final concentration: 2 nM, Ab) was added to each well, followed by incubation at room temperature for 1 h. The plate was read using a PE Envision multi-functional microplate reader ([…], emission: 665 nm), and IC50 was calculated by four-parameter fitting.

In a further data set the target is EGFR (WT) (Homo sapiens, UniProt P00533). The data set is described as follows: Screening for EGFR inhibitory activity. The data set is classed as biochemical. As for the experimental part: 1.2 Screening for EGFR (Epidermal Growth Factor Receptor) Inhibitory Activity
50 ng/μL EGFR (WT) stock solution was diluted with kinase buffer (50 mM HEPES, 10 mM MgCl2, 2 mM DTT, 1 mM EGTA, 0.01% Tween 20), and 6 μL of 1.67× working solution at 0.01336 ng/μL (final concentration: 0.008 ng/μL) was added to each well. Different compounds dissolved in DMSO were added to the wells using a nanoliter pipettor, resulting in the final concentration of 1000 nM to […] (4-fold gradient for 7 concentrations in total), and blank control wells (without enzyme) and negative control wells (with enzyme, plus vehicle DMSO) were set, 2 replicate wells for each well. After enzyme was reacted with the compound or vehicle for 10 min, 5× ATP at 25 μM (final concentration: 5 μM) prepared with kinase buffer was mixed with 5× substrate at 0.5 μM (final concentration: 0.1 μM, ULight-poly GT) at a ratio of 1:1, and the mixture was added to each well at 4 μL/well. After being sealed with a film, the plate was incubated at room temperature for 2 h, then 5 μL of 4×EDTA at 40 mM (final concentration: 10 mM) was added to each well. After the plate was incubated for 5 min at room temperature, 5 μL of 4× detection reagent at 8 nM (final concentration: 2 nM, Eu-anti-phospho-tyrosine antibody) was added to each well, followed by incubation at room temperature for 1 h. The plate was read using a PE Envision multi-functional microplate reader (excitation: 320 nm, emission: 665 nm), and IC50 was calculated by four-parameter fitting.

In data set [1] the target is T1, BTK (Y223) phosphorylation in Ramos lymphoma cells (Homo sapiens, UniProt Q06187).
T1 construct: Ramos lymphoma cells in logarithmic growth phase were centrifuged; endogenous in cells; host or cells: Ramos lymphoma cells
Briefly: BTK (Y223) phosphorylation inhibition at cell level. The data set is classed as cell-based. As for the experimental part: EXPERIMENTAL EXAMPLE 2: SCREENING FOR BTK (Y223) PHOSPHORYLATION INHIBITION ACTIVITY AT CELL LEVEL
20 μL of 30% hydrogen peroxide was added in 860 μL of double distilled water to prepare 200 mM hydrogen peroxide. PV (sodium pervanadate): 10 μL of 200 mmol/L sodium orthovanadate was reacted with 10 μL of 200 mmol/L hydrogen peroxide in 80 μL of RPMI 1640 complete medium at room temperature for 15 min, and the reaction solution was diluted with RPMI 1640 complete medium to 6 mM. It was prepared freshly prior to use. Ramos lymphoma cells in logarithmic growth phase were centrifuged at 1500 rpm for 3 min using a low-speed centrifuge, added with a proper amount of RPMI 1640 complete medium, resuspended and counted. A proper amount of corresponding culture medium was added to a proper amount of cell suspension to adjust the cell density to about 1-2×10E7 cells/mL. The cells at the above cell density were seeded in a 384-well plate at 20 μL/well, then 5 μL of compound was added to each well, and the plate was incubated for 1 h. 20 mM PV was diluted with RPMI 1640 complete medium to 6 mM (final concentration: 1 mM), added to wells at 5 μL/well according to the plate distribution, and incubated for 15-20 min. The blank group was wells seeded with cells, without compound and PV, and the control group was wells seeded with cells, without compound and with PV. 10 μL of lysis buffer (4×) containing blocking buffer was added immediately and incubated by shaking at room temperature for 30 min. After the mixture was mixed, 16 μL of lysate was transferred to another 384-well small-volume white plate. The plate was added with 4 μL of pre-mixed antibody (vol/vol) in assay buffer, covered, centrifuged to mix well, and incubated overnight at room temperature. The 665 nm/620 nm signal value was detected using a PE Envision multi-functional microplate reader, and IC50 was calculated by four-parameter fitting.

The nature of data set [2]: Mouse liver microsome metabolic stability. Type of data set: in vitro ADME. To be noted: mouse liver microsomes. As for the experimental part:
3.2 Mouse Liver Microsome Assay
300 μL of final incubation system: 30 μL of mouse liver microsomes (protein concentration: 5 mg/mL, XENOTECH, USA), 30 μL of NADPH (10 mM)+MgCl2 (5 mM), 3 μL of the substrate, i.e., the example compound (dissolved in 50% aqueous acetonitrile solution, 100 μM), and 237 μL of PBS buffer, wherein the proportion of the organic solvent (acetonitrile) was 0.5%. Each tube was added with 270 μL of a mixed solution of substrate and enzyme, and after being pre-incubated at 37° C. for 5 min, added with 30 μL of NADPH+MgCl2. Then 50 μL of the mixture was taken at 0 min, 15 min, 30 min and 60 min, and added with 300 μL of diazepam glacial acetonitrile (20 ng/mL) containing an internal standard to quench the reaction. The reaction mixture was vortexed for 5 min, and centrifuged (13,000 rpm, 4° C.) for 10 min. 100 μL of supernatant was pipetted into a sample vial, from which 1 μL of supernatant was injected and analyzed by LC-MS/MS, and the residual percentage was calculated.

T1 sequence (Q06187 whole entry): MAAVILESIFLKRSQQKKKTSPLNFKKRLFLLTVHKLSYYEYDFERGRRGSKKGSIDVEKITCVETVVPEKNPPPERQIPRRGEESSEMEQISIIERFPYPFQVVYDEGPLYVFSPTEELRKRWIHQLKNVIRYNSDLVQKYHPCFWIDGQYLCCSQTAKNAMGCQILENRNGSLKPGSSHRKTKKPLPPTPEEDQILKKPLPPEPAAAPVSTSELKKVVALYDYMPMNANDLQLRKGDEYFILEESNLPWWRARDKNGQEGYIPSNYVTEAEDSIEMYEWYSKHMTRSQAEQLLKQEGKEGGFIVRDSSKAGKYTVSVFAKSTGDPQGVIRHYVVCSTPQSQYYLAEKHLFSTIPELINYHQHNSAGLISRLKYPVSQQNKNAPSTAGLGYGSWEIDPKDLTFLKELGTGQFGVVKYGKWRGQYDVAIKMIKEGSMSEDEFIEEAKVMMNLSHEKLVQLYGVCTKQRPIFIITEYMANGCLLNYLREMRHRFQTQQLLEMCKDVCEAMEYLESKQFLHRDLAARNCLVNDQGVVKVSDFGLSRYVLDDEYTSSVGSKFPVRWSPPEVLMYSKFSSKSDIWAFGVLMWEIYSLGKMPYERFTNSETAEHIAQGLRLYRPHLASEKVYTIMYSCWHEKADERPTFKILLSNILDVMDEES
BTK(WT), sequence (Q06187 whole entry): as above
EGFR (WT), sequence (P00533 25-1210, species assumed): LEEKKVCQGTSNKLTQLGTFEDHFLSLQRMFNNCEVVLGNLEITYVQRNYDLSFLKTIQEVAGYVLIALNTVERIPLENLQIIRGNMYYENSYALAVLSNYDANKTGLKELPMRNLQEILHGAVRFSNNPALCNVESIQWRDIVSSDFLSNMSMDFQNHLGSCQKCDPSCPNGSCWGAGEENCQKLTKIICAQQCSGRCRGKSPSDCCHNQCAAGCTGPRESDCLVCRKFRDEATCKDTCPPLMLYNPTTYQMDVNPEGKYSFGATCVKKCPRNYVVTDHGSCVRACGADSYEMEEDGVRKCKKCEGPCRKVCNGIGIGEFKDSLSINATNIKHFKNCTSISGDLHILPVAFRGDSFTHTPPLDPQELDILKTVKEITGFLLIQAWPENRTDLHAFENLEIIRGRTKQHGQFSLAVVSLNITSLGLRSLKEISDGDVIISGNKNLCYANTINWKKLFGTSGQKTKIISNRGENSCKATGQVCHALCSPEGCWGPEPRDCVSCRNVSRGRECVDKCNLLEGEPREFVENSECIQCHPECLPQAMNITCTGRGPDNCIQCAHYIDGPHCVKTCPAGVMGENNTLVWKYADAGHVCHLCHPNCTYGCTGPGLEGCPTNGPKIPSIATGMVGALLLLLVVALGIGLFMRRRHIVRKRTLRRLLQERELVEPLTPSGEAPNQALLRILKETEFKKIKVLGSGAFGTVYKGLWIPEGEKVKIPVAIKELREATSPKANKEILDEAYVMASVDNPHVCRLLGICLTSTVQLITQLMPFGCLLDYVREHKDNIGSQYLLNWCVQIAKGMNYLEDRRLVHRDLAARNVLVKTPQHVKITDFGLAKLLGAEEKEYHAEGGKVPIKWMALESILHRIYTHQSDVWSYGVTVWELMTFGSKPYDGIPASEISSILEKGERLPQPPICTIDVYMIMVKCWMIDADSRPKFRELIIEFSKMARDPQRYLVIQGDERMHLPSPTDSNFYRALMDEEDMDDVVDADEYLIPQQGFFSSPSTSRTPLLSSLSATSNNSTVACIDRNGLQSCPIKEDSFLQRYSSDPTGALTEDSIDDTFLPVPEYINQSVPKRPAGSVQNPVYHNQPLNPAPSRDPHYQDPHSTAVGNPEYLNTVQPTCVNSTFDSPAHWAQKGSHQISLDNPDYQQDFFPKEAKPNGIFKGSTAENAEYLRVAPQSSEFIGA

As to `CC#CC(=O)N1[C@@H]2COC[C@@H]2C[C@H]1c1nc(-c2ccc(C(=O)Nc3ccccn3)cc2)c2c(N)nccn12` [Compound I-1, 4-(8-amino-3-((2S,3aR,6aS)-1-(but-2-ynoyl)hexahydro-1H-furo[3,4-b]pyrrol-2-yl)imidazo [1,5-a]pyrazin-1-yl)-N-(pyridin-2-yl)benzamide], the IC50 against BTK(WT) is 52.1 nM; at EGFR (WT), greater than 1000 nM; in data set [1], 30 nM. For the same molecule, in data set [2], the “Mouse (MLM) Remaining % (T = 60 min)” value is listed as 90%.

Turning to `C=CC(=O)N1[C@@H]2COC[C@@H]2C[C@H]1c1nc(-c2ccc(C(=O)Nc3ccccn3)cc2)c2c(N)nccn12` [Compound I-3, 4-(3-((2S,3AR,6AS)-1-ACRYLOYLHEXAHYDRO-1H-FURO[3,4-B]PYRROL-2-YL)-8-AMINOIMIDAZO [1,5-A]PYRAZIN-1-YL)-N-(PYRIDIN-2-YL)BENZAMIDE], the half-maximal inhibitory concentration (IC50) against BTK(WT) amounted to 21.4 nM; against EGFR (WT), 107 nM; in data set [1], 25 nM. The “Mouse (MLM) Remaining % (T = 60 min)” value in data set [2] amounted to 89%.

Consider `CC#CC(=O)N1[C@@H]2COC[C@@H]2C[C@H]1c1nc(-c2ccc(C(=O)Nc3cc(C(F)(F)F)ccn3)cc2F)c2c(N)nccn12` [Compound I-4, 4-(8-AMINO-3-((2S,3AR,6AS)-1-(BUT-2-YNOYL)HEXAHYDRO-1H-FURO[3,4-B]PYRROL-2-YL)IMIDAZO[1,5-A]PYRAZIN-1-YL)-3-FLUORO-N-(4-(TRIFLUOROMETHYL)PYRIDIN-2-YL)BENZAMIDE], for which the values for the concentration for half-maximal inhibition (IC50) (at BTK(WT); on EGFR (WT); in data set [1]) were 12.4 nM, greater than 1000 nM and 66 nM, respectively. Besides, the “Mouse (MLM) Remaining % (T = 60 min)” value in data set [2] is given as 32%.

Regarding `Nc1nccn2c([C@@H]3C[C@H]4COC[C@H]4N3C(=O)C3CC3)nc(-c3ccc(C(=O)Nc4cc(C(F)(F)F)ccn4)cc3F)c12` [Compound I-7, 4-(8-AMINO-3-((2S,3AR,6AS)-1-(CYCLOPROPANECARBONYL)HEXAHYDRO-1H-FURO[3,4-B]PYRROL-2-YL)IMIDAZO[1,5-A]PYRAZIN-1-YL)-3-FLUORO-N-(4-(TRIFLUOROMETHYL)PYRIDIN-2-YL)BENZAMIDE], the concentration for half-maximal inhibition (IC50) at BTK(WT) was 9.7 nM; at EGFR (WT) it was greater than 1000 nM; in data set [1] it was 52 nM. Besides, the “Mouse (MLM) Remaining % (T = 60 min)” value in data set [2] is 55.7%.

The values above are taken from patent US11891405B2, “Furo[3,4-b]pyrrole-containing BTK inhibitor” (CHIA TAI TIANQING PHARMACEUTICAL GROUP CO., LTD., priority 2018, dated 2024).
